Reference: US20230258569A1, “REAGENT FOR MEASURING SKIN SENSITIZATION, COMPOUND, AND METHOD FOR MEASURING SKIN SENSITIZATION” (FUJIFILM Corporation, priority 2020, published 2023)
Where a name gives a salt, the structure may show the parent alone.

Columns and labels:
[1] = Reactivity (% depletion) of nucleophilic reagent Compound 1 with test substance, HPLC; skin sensitization prediction; conditions: for reactivity of Compound 1 in comparison with NAC and NAL in ADRA / reactivity of Compound 1 in comparison with NAC-amide / reactivity of Compound 1 in comparison with the cysteine peptide and the lysine peptide in DPRA / reactivity of Compound 1 in comparison with GSH-NBD: FIG. 3, FIG. 4; for reactivity of Compound 1 with the substance: in words
[2] = prediction results published in the literature; cited from earlier work
[3] = in vivo; cited from earlier work
[4] = DPRA (direct peptide reactivity assay); conditions: in words
Text: For example, [Gerberick, G. F., Vassallo, J. D., Bailey, R. E., Chaney, J. G., Morrall, S. W., and Lepoittevin, J. P. (2004). Development of a peptide reactivity assay for screening contact allergens. Toxicological Sciences, 81 (2), pp. 332-343] and [Gerberick, G. F., Vassallo, J. D., Foertsch, L. M., Price, B. B., Chaney, J. G., and Lepoittevin, J. P. (2007). Quantification of chemical peptide reactivity for screening contact allergens: a classification tree model approach. Toxicological Sciences, 97 (2), pp. 417-427] describe a method using two types of peptides (a cysteine peptide and a lysine peptide) as nucleophilic reagents. In addition, JP2011-59102A and JP2014-37995A describe a reagent for measuring skin sensitization and a method for measuring skin sensitization, using a cysteine derivative into which an aryl ring has been introduced and a lysine derivative into which an aryl ring has been introduced as nucleophilic reagents (also referred to as ADRA).
Natsch A. and Gfeller H. (2008). […] Quantification of chemical peptide reactivity for screening contact allergens: a classification tree model approach. […]
One type of nucleophilic reagent (Compound 1) was evaluated. In addition, the following compounds were also evaluated in the same manner as controls for comparison of the reactivity to the fifteen types of evaluation substances. • Cys peptide • Lys peptide

[5] = prediction results published in the literature; cited from earlier work; remark: listed apart in the source
[6] = Stability of nucleophilic reagent (residual ratio, HPLC-UV); assay type: physicochemical
Protocol: Immediately after preparation of the reaction solution (0 hours) and after incubation of the reaction solution at 25° C. for 24 hours (24 hours), the reaction solution is measured by HPLC-UV. At this time, since the nucleophilic reagent and the oxidized form and modified form of the nucleophilic reagent can be confirmed on HPLC, the residual ratio of the nucleophilic reagent is calculated based on the following equation.
Residual ratio (%) of nucleophilic reagent=area value of nucleophilic reagent/(area value of nucleophilic reagent+area value of oxidized form of nucleophilic reagent+area value of modified form of nucleophilic reagent)×100

Row | SMILES | reactivity of Compound 1 in comparison with NAC and NAL in ADRA [1] | reactivity of Compound 1 in comparison with NAC-amide [1] | reactivity of Compound 1 in comparison with the cysteine peptide and the lysine peptide in DPRA [1] | DPRA prediction [2] | Category of LLNA sensitization [3] | reactivity with the cysteine peptide in DPRA [4] | reactivity of Compound 1 with the substance [1] | ADRA prediction [5] | reactivity of Compound 1 in comparison with GSH-NBD [1] | depletion of Compound 1 ([1]; pH 7.4) | depletion of Compound 1 ([1]; pH 8.0) | residual ratio of nucleophilic reagent ([6]; after 24 hours, 25° C.) | residual ratio of nucleophilic reagent ([6]; immediately after solution preparation (0 hours))
1 | CCC=C1OC(=O)c2ccccc21 [3-Propylidene phthalide] | same level of reactivity | same level of reactivity | lower reactivity | Positive | Moderate |  |  |  |  |  |  |  | 
2 | CCOS(=O)(=O)OCC [Diethyl sulfate] |  |  |  | Positive |  |  |  |  |  |  |  |  | 
3 | CCCCBr [1-Bromobutane] | same level of reactivity | same level of reactivity |  |  |  | reactive | no reactivity | Negative |  |  |  |  | 
4 | CCCCCCI [Compound 1-Iodohexane, 1-Iodohexane] | same level of reactivity | same level of reactivity |  |  | None | reactive | no reactivity | Negative |  |  |  |  | 
5 | O=C(Oc1ccccc1)c1ccccc1 [Phenyl benzoate] | higher reactivity | same level of reactivity | lower reactivity | Positive | Weak |  |  |  |  |  |  |  | 
6 | COc1ccc(C(C)=O)cc1 [4′-Methoxyacetophenone] | same level of reactivity | same level of reactivity | same level of reactivity | Negative | None |  |  | Negative |  |  |  |  | 
7 | O=C(O)c1ccc2c(c1)C(=O)OC2=O [Trimellitic anhydride] | NAL showed higher reactivity than Compound 1 | higher reactivity | same level of reactivity | Positive | Strong |  |  | Positive | GSH-NBD showed higher reactivity | 41.0% | 37.2% |  | 
8 | O=c1cccccc1O [Tropolone] | higher reactivity | same level of reactivity | lower reactivity | Positive | Moderate |  |  |  |  |  |  |  | 
9 | O=c1c(-c2ccccc2)c1-c1ccccc1 [Diphenylcyclopropenone] | higher reactivity | same level of reactivity | same level of reactivity | Positive |  |  |  | Positive |  |  |  |  | 
10 | CCCCCCCCC(=O)Cl [Nonanoyl chloride] | higher reactivity | same level of reactivity | higher reactivity |  | Moderate |  |  | Positive | GSH-NBD showed higher reactivity |  |  |  | 
11 | CC(C=O)Cc1ccc(C(C)C)cc1 (centres unmarked) [Cyclamen aldehyde] | higher reactivity | higher reactivity | higher reactivity | Positive | Weak |  |  |  | higher reactivity |  |  |  | 
12 | COC(=O)C(C)=O [Methyl pyruvate] | higher reactivity | higher reactivity | higher reactivity |  | Moderate |  |  |  | higher reactivity |  |  |  | 
13 | NNC(=O)[C@H](CS)NC(=O)Cc1cccc2ccccc12 [Compound 1] |  |  |  |  |  |  |  |  |  |  |  | ≥ 85% | ≥ 90%
14 | CCCCCC(C=O)=Cc1ccccc1 [α-Pentyl cinnamaldehyde] | higher reactivity | higher reactivity | higher reactivity |  | Weak |  |  |  | higher reactivity |  |  |  | 
15 | CCOC(=O)CC(=O)c1ccccc1 [Ethyl benzoylacetate] | same level of reactivity | same level of reactivity | same level of reactivity | Negative | None |  |  | Negative |  |  |  |  | 
